Data set [1] relates to LASV GP-pseudotyped vesicular stomatitis virus. Nature of the data set: microbe, parasite or virus in culture. It counts as cell-based, Lassa virus.
The test system of data set [2] is MARV GP-pseudotyped vesicular stomatitis virus. As to the kind of experiment: microbe, parasite or virus in culture. It counts as cell-based, Marburg virus. Conditions: Vesicular stomatitis virus; for EC50: read-out: EC50, MARV Entry; for EC90: read-out: EC90, MARV Entry.
Data set [3] deals with EBOV. It is filed as cell-based, Ebola virus.
For data set [4], the system named is EBOV GP-pseudotyped vesicular stomatitis virus. Nature of the data set: microbe, parasite or virus in culture. It is filed as cell-based, Ebola virus. Conditions: Zaire ebolavirus; for EC50: read-out: EC50, EBOV Entry; for EC90: read-out: EC90, EBOV Entry.
The subject of data set [5] is EBOV. Nature of the data set: microbe, parasite or virus in culture. It counts as cell-based, Ebola virus. To be noted: Zaire ebolavirus; for EC50: read-out: EC50, EBOV Replication; for EC90: read-out: EC90, EBOV Replication.
The subject of data set [6] is EBOV virus-like particles. It is filed as cell-based, Ebola virus.
In the next data set the test system is LASV. It is filed as cell-based, Lassa virus.
The test system of another data set is MARV. As to the kind of experiment: organism not typed. It is filed as cell-based, Marburg virus. Conditions: for EC50: read-out: EC50, MARV Replication; for EC90: read-out: EC90, MARV Replication.
The next data set in a line: in vivo. To be noted: male, Balb/c, mouse, ip, 90 mg/kg.
The conditions of data set [7]: mouse, in vivo.
Data set [8] concerns EBOV. It counts as cell-based, Ebola virus. The source holds these as a separate data set.
For data set [9] the following is noted: cited from earlier work.
The subject of data set [10] is Francisella tularensis. Nature of the data set: microbe, parasite or virus in culture. It is filed as cell-based. To be noted: J774.A1, 15 h, read-out: Fransciella tularensis ICR (% protection).
Data set [11] concerns Bacillus anthracis. It counts as cell-based. Conditions: 50 µM.
Data set [12] concerns Bacillus anthracis. Details: species or system Balb/c mice. Conditions: in vivo.
Another data set concerns Coxiella burnetii. As to the kind of experiment: microbe, parasite or virus in culture. It is filed as cell-based. To be noted: Vero, 168 h, read-out: Coxiella burnetii ICR (% protection).
The test system of data set [13] is Bacillus anthracis. As to the kind of experiment: microbe, parasite or virus in culture. It counts as cell-based. To be noted: J774.A1, 15 h, read-out: Bacillus anthracis ICR (% protection).
Data set [14] deals with Francisella tularensis. It is filed as cell-based. To be noted: 50 µM.
Where [15] appears, read: Vesicular stomatitis virus, HEK-293T, 50 µM, read-out: LASV VPEN (% activity).
The mark [16] stands for this setting: HEK-293T, read-out: MASV VPEN (% activity).
Where [17] appears, read: HEK-293T, read-out: EBOV VPEN (% activity).

Consider seven molecules from paper PMC3618516, “A Systematic Screen of FDA-Approved Drugs for Inhibitors of Biological Threat Agents” (PLoS ONE, 2013).

Where two headings read alike, the source gives them in different places.

Usually EC50 stands for the midpoint of the concentration-response curve. In general, EC90 refers to the concentration needed for an effect of 90%. Broadly, the AUC is concentration integrated over time. The low end stands for less exposure, the high end for more exposure. In general, Tmax refers to the time at which the peak concentration occurs. As usually defined, the half-life is the time in which the quantity being followed falls by half. Read a low half-life as fast loss. Broadly, the Cmax is the maximum level reached in the sampled fluid or tissue.

Take `CCN(CC)Cc1cc(Nc2ccnc3cc(Cl)ccc23)ccc1O` [Amodiaquine]: the inhibition at 10 µM was found to be 51% in data set [1] (Vesicular stomatitis virus, HEK-293T, 10 µM, read-out: LASV VPEN (% activity)); 97% in data set [2] (HEK-293T, 10 µM, read-out: MASV VPEN (% activity)); 99% in data set [4] (HEK-293T, 10 µM, read-out: EBOV VPEN (% activity)). Besides, the EC50 is 2.3 µM in data set [2], 2.6 µM in data set [4], 8.4 µM in the data set with EBOV [5] and 8.3 µM in the data set with MARV. Also, the EC90 stood at 6.5 µM in data set [2], 8 µM in data set [4], 17 µM in the data set with EBOV [5] and 16 µM in the data set with MARV. Besides, the “EBOV VR” value in the data set on EBOV [3] (10 µM) is listed as “−”. Besides, the “effect on number of VLPs bound per cell” value in data set [6] was “no significant difference in binding”. The “LASV VR” value with LASV (10 µM) was “−”.
Take `CCN(CC)CCCC(C)Nc1ccnc2cc(Cl)ccc12` (stereo not shown) [Chloroquine]: in [1] (setting [15]), the inhibition at 50 µM was determined as 34%. For the same molecule, in [2] (setting [16]), the inhibition at 50 µM turned out to be 97%. In data set [2], the EC50 is 5.5 µM and the EC90 came to 24 µM. Moreover, in the data set on EBOV [3] (50 µM), the “EBOV VR” value was “+”. Further, in “in vivo”, the AUC amounted to 23000 ng·h/mL, the Tmax stood at 0.5 h and the half-life is about 7 h. In “in vivo” (Cmax), this molecule yielded a maximum concentration (Cmax) of 5330 ng/mL. In [7] (male, Balb/c), the “Apparent Css” value is given as ~ 2.5 μg/ml, the “apparent steady state concentration” value was 2,500 ng/mL and the “time to apparent steady state after initiating treatment” value was 35 to 40 h. For the same molecule, the “survival of mice on repeat dosing (tolerability)” value in [7] is on record as “all mice survived”. Also, the inhibition at 50 µM in data set [4] (setting [17]) came out at 97%. In data set [4], the EC50 worked out at 4.7 µM and the EC90 turned out to be 43 µM. For the same molecule, in the data set with EBOV [5], the EC50 stood at 16 µM and the EC90 worked out at 25 µM. In addition, the “effect on number of VLPs bound per cell” value in [6] is “no significant difference in binding”. For the same molecule, the “LASV VR” value with LASV (50 µM) is reported as “−”. Moreover, in the data set with MARV, the EC50 came out at 15 µM and the EC90 stood at 21 µM. Also, the “co-localization of virus particles with EEA1 / LAMP1” value in the data set with EBOV [8] was “most particles were now associated with EEA1 and very few particles were co-localized with LAMP1”.
Turning to `CC[C@H]1OC(=O)[C@H](C)[C@@H](O[C@H]2C[C@@](C)(OC)[C@@H](O)[C@H](C)O2)[C@H](C)[C@@H](O[C@@H]2O[C@H](C)C[C@H](N(C)C)[C@H]2O)[C@](C)(OC)C[C@@H](C)C(=O)[C@H](C)[C@@H](O)[C@]1(C)O` [Clarithromycin], in data set [9] (humans, no reference given), the bioavailable is about 50%.
Consider `CC[C@H]1OC(=O)[C@H](C)[C@@H](O[C@H]2C[C@@](C)(OC)[C@@H](O)[C@H](C)O2)[C@H](C)[C@@H](O[C@@H]2O[C@H](C)C[C@H](N(C)C)[C@H]2O)[C@](C)(O)C[C@@H](C)[C@@H]2N[C@@H](COCCOC)O[C@H]([C@H]2C)[C@]1(C)O` [Dirithromycin], for which the inhibition at 50 µM is 88% with Francisella tularensis [10]; -11% in data set [1] (setting [15]); 91% in [2] (setting [16]); 99% in data set [4] (setting [17]); 92% in the data set with Bacillus anthracis [13]. Besides, the “LASV VPEN (% activity)” value in [1] (50 µM) is reported as “no activity”. In the data set on Bacillus anthracis [11], the “Bacillus anthracis Broth (% protection)” value is “+”. Also, the “EBOV VR” value with EBOV [3] (50 µM) was “−”. The “protection of mice against BA infection (% of the mice)” value in the data set with Bacillus anthracis [12] (mouse) was determined as 20%. In addition, in the data set with LASV (50 µM), the “LASV VR” value was “−”. In the data set on Coxiella burnetii, the inhibition of growth at 50 µM is 0%. In the data set with Francisella tularensis [14], the “Fransciella tularensis Broth (% protection)” value is recorded as “+”.
As to `CCN(CCO)CCCC(C)Nc1ccnc2cc(Cl)ccc12` (stereo not shown) [HCQ, Hydroxychloroquine], the EC50 in [2] came to 9.8 µM; in data set [4], 9.5 µM; with EBOV [5], 22 µM; with MARV, 18 µM. Also, the EC90 in data set [2] worked out at 52 µM; in data set [4], 85 µM; with EBOV [5], 32 µM; in the data set on MARV, 19 µM. Besides, in [6], the “effect on number of VLPs bound per cell” value is on record as “no significant difference in binding”.
With `CCn1cc(C(=O)O)c(=O)c2cc(F)c(N3CCNC(C)C3)c(F)c21` (stereo not shown) [Lomefloxacin], the inhibition at 50 µM with Francisella tularensis [10] came out at 98%; in the data set with Bacillus anthracis [13] it was 95%. Also, the “Bacillus anthracis Broth (% protection)” value in the data set with Bacillus anthracis [11] is “+”. Further, in data set [9] (following a 400 mg dose in humans), the “maximum concentration (Cmax)” value was 2000 to 4000 ng/mL. Also, the bioavailability in [9] (humans) is 95–98%. Besides, in the data set with Bacillus anthracis [12], the “efficacy in preventing mouse death following BA infection (rank)” value is on record as “most efficacious drug”. Also, the inhibition of growth at 50 µM in the data set with Coxiella burnetii is 100%. Also, in the data set on Francisella tularensis [14], the “Fransciella tularensis Broth (% protection)” value was “+”.
For the molecule `CCn1cc(C(=O)O)c(=O)c2cc(F)c(N3CCNCC3)cc21` [Norfloxacin], the inhibition at 50 µM is 83% with Francisella tularensis [10] and 105% with Bacillus anthracis [13]. Further, in the data set on Bacillus anthracis [11], the “Bacillus anthracis Broth (% protection)” value is reported as “+”. The Cmax in data set [9] (humans, dose not given) is 2000 ng/mL. Moreover, the inhibition of growth at 50 µM in the data set on Coxiella burnetii turned out to be 0%. The “Fransciella tularensis Broth (% protection)” value in the data set on Francisella tularensis [14] is listed as “+”.
